From patent publication US20240398853A1, “MULTIVALENT POLYCATION INHIBITION OF POLYANIONS IN BLOOD” (The Regents of the University of Michigan, priority 2021, published 2024)

Columns and labels:
[1] = free ligand, value marked with a reference superscript; cited from earlier work
[2] = 31P NMR titration of polyP with MPI or CBG; format: binding; details: HEPES buffer, 150 mM NaCl, 298 K
Experimental: NMR spectra for MPI and polyP binding interaction studies were acquired on a Bruker 500 MHz instrument (Bruker Biospin, Milton, ON), operating at a ^1H frequency of 499.4 MHz. ^31P NMR spectra were collected at 298 K. The NMR sample was prepared to yield 0.5 mM of polyphosphate in HEPES buffer with 150 mM NaCl and 10% D2O (by volume) for a total sample volume of 600 μL. All polyphosphate concentrations are provided in terms of the concentration of phosphate monomer. For the binding study, polyphosphate was first prepared with a known concentration of internal standard of trimethylphosphate. MPI was titrated in, and the total volume was increased by 1.5 μL of the 600 μL total per addition.
While ITC experiments indicate the behavior of the amine functionalities on the CBGs during the MPI-polyP binding event, the effect of the MPI on the polyP phosphate backbone have previously been unknown. To determine the interaction between the MPI and polyP backbone, and how the interaction effects the electronic environment of the phosphorus nuclei, ^31P NMR titration experiments were performed. […] While it is not possible to quantify the number of bound phosphate units with MPI or CBG, it is possible to visualize the change in electronic environment of the phosphorus nuclei and extrapolate the binding behavior between MPI and polyP.

[3] = Isothermal titration calorimetry, binding to polyP; details: for Kd: pH 7.4, 25° C.
Experimental: The interaction of MPI and polyP was carried out at 25° C. using a MicroCal iTC200 calorimeter (MicroCal, Northampton, USA). Samples were prepared by making stock solutions of at least 100× the desired concentration at high volume and filtered using 0.2 µm filters (Millex, Merck Millipore Ltd). The pH of each solution was then measured to ensure that they were between 7.35 and 7.40. Prior to titration, stock solutions were diluted with the same filtered buffer and degassed. Titrations consisted of 25 consecutive injections of 1.5 μL volume and 5 sec duration each, with a 3 min interval between injections with only the first injection between 0.2 μL volume, not used as part of the fit. Heat of dilution was measured by injecting MPI solution into buffer alone and was subtracted from the experimental curves prior to data analysis. The resulting data were fit into a single set of identical sites model using the MicroCal ORIGIN software supplied with the instrument.

human plasma clotting = assay: Plasma clot formation by turbidity analysis in a TF-triggered system (no polyP); format: biochemical
Experimental: Microplate turbidimetric clotting assays were performed with platelet-poor plasma (PPP) obtained from three donors. MPI solutions were prepared in 20 mM HEPES (pH 7.4, 150 mM NaCl) buffer. Clotting was initiated in 90 μL of 30% diluted PPP spiked with MPI (dilution 1:10) by adding 5 μL of recombinant tissue factor (TF; Innovin (1:10,000; […])) and 5 μL of CaCl2) (20 mM). Clotting was evaluated by monitoring changes in turbidity (A405 nm) every 30 seconds with the Spectramax microplate reader for 2 hours at 37° C. Clotting parameters including lag time were calculated and considered as the time point when an exponential increase in absorbance was first observed.

mice = mice (Shenoi); cited from earlier work
tinzaparin (LMWH) = assay: Heparin reversal activity by aPTT in heparinized plasma; format: biochemical, human; details: tinzaparin 1 U/mL
Experimental: (§1) Stock MPI, UHRA or protamine sulfate solutions were prepared in 20 mM HEPES buffer (pH 7.4 and 150 mM NaCl). Unfractionated heparin (Fresenius Kabi, Canada) or tinzaparin (LEO Pharma, Canada), 4 U/mL and 1 U/mL final concentrations, respectively, were incubated with sodium citrate anticoagulated pooled normal plasma (Affinity Biologicals, Canada) to prepare heparinized plasma, and were used to study the neutralization activity by various MPI and UHRA constructs. The neutralization activity of MPI, UHRA and protamine sulfate on the coagulation cascade was examined by mixing 20 μL of MPI or UHRA or protamine solution with 180 μL of heparin derivative incubated plasma ( 1/10 v/v). The final concentration of MPI, UHRA and protamine in plasma ranged from 0.025 mg/mL to 0.25 mg/mL. 200 μL of aPTT reagent (Dade®Actin®FS Activated PTT, Siemens/Dade-Behring) was then added to the neutralization reagent-plasma sample and 100 μL of this resulting mixture was transferred to cuvette-strips and incubated at 37° C. for 3 minutes. The clotting time was measured on a STart® 4 coagulometer (Diagnostica Stago, France) and began when 50 μL of 25 mM CaCl2) was added into each cuvette. Saline added to plasma with and without heparin-derivatives was used as a control for the experiments. The percentage of neutralization was calculated from the difference in the clotting times observed for MPI/UHRA/protamine versus control saline and heparinized plasma. All experiments were performed with pooled plasma of 20 donors in triplicates and the average values (mean±SD) are reported.

[4] = tested on: Unfractionated heparin (UFH); assay: as above; format: biochemical, human; details: UFH 4 U/mL, dose range 0-250 μg/mL
Experimental: as §1

Row | binding behaviour towards P45 in 31P NMR titration [2] | binding affinity to LC polyP (range in words) ([3]; ITC, FIG. 7) | Kd ([3]; P45, HEPES, 10 mM NaCl) | Kd ([3]; P700, HEPES buffer) | Compound | log K, H2L + H ⇌ H3L [1] | log K, HL + H ⇌ H2L [1] | log K, L + H ⇌ HL [1] | log K, H3L + H ⇌ H4L [1] | plasma clot time (lag time) compared to buffer control (human plasma clotting; MPI and PS 200 μg/mL, UHRA 75 μg/mL) | increase in clot time compared to buffer control (human plasma clotting; pooled plasma) | lethal dose (mice) | LMWH neutralization (tinzaparin (LMWH)) | UFH neutralization in heparinized plasma [4] | anticoagulant (overdose) behavior at higher doses [4]
1 | weak interaction | millimolar range | 7 mM | 9 mM | CN(C)CCN(C)CCN(C)C [CBG I, N,NN′,N″,N″-pentamethyldiethylenetriamine] | 2.09 ± 0.02 | 8.41 ± 0.02 | 9.22 ± 0.02 |  |  |  |  |  |  | 
2 |  |  |  |  | CN(C)CCN(CCN(C)C)CCN(C)C [Me6-TREN] | 7.44 | 8.68 | 9.50 | <1.0 |  |  |  |  |  | 
3 |  |  |  |  | protamine sulfate |  |  |  |  | performed significantly worse than MPI candidates | ~3 fold | 30 mg/kg | almost no neutralization activity on LMWH | exhibits heparin neutralization at lower doses | clear anticoagulant behavior at higher doses
